Laboratory results from PMC11206297, “Targeting NAD Metabolism: Rational Design, Synthesis and In Vitro Evaluation of NAMPT/PARP1 Dual-Target Inhibitors as Anti-Breast Cancer Agents” (Molecules, 2024).

Legend:
NAMPT = NAMPT (Homo sapiens, UniProt P43490); assay: NAMPT enzymatic inhibition assay (fluorescence, coupled NMNAT/alcohol dehydrogenase); format: biochemical; conditions: for inhibition at 0.1 µM / NAMPT Inhibition Rate: duplicate, average, 0.1 μM; for inhibition at 0.1 µM: read-out: NAMPT Inhibition Rate; for IC50: mean ± SD of at least two independent experiments in duplicate
Sequence of NAMPT (P43490 whole entry): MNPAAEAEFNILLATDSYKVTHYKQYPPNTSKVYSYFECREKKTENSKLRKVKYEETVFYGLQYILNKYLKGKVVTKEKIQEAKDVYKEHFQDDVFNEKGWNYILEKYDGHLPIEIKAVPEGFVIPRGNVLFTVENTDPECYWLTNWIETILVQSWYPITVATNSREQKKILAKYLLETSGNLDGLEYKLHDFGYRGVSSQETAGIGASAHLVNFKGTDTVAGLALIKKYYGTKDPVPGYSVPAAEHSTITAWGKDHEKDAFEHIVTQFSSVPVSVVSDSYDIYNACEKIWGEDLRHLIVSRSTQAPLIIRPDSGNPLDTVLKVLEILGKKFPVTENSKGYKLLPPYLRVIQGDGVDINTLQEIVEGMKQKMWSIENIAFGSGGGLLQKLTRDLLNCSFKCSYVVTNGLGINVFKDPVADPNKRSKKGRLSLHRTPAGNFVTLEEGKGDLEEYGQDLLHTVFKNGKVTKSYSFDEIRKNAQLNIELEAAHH

PARP1 = PARP1 (Homo sapiens, UniProt P09874); assay: PARP1 enzymatic inhibition assay (ELISA, chemiluminescence); format: biochemical; conditions: for inhibition at 0.5 µM: duplicate, average, read-out: PARP1 Inhibition Rate; for IC50: mean ± SD of at least two independent experiments in duplicate
Sequence of PARP1 (P09874 whole entry): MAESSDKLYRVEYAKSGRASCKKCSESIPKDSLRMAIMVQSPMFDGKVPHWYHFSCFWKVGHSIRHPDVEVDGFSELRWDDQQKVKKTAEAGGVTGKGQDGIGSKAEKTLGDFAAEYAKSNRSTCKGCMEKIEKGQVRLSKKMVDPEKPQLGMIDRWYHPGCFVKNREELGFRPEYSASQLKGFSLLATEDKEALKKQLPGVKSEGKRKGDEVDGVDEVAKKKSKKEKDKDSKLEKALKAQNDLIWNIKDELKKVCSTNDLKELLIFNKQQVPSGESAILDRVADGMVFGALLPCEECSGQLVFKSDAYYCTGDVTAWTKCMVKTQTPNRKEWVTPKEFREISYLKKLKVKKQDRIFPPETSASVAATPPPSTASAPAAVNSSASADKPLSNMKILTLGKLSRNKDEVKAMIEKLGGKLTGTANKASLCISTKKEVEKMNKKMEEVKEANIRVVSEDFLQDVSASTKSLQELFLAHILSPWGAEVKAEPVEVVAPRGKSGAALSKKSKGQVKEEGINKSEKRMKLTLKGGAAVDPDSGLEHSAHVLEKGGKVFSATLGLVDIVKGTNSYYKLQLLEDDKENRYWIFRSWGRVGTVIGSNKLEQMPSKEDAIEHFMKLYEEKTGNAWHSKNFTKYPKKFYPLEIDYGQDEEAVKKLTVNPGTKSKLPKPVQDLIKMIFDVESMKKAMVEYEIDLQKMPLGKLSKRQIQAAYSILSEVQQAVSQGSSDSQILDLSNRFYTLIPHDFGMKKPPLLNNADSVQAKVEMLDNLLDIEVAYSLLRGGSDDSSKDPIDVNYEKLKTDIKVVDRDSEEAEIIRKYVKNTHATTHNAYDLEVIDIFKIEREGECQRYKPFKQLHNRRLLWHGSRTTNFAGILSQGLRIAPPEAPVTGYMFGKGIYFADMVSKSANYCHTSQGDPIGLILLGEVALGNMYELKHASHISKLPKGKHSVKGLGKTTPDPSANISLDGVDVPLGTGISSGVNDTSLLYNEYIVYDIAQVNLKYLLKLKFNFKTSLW

MDA-MB-231 = assay: MTT cell viability assay, MDA-MB-231; format: cell-based; conditions: Homo sapiens, 72 h, mean ± SEM, read-out: Cytotoxicity IC50 MDA-MB-231
Method: (§1) MDA-MB-468, MDA-MB-231, MCF-7, and MCF-10A cell lines were obtained from the National Collection of Authenticated Cell Culture, China. The cells were cultured in DMEM medium supplemented with 10% FBS and 1% penicillin/streptomycin, and maintained at 37 °C in a humidified atmosphere with 5% CO2.
(§2) Cell viability was assessed using the MTT assay. Cells were seeded at a density of 3 × 10^3 cells per well in a 96-well plate and treated with various concentrations (0.05, 0.2, 0.8, 3.2, 6.4, 12.8 µM) of the compounds for 72 h. After incubation, 100 µL of MTT solution (0.5 mg/mL) was added to each well and further incubated for 4 h. The resulting formazan crystals were dissolved in 150 µL of DMSO, and the absorbance was measured at 570 nm using a microplate reader.

MDA-MB-468 = assay: MTT cell viability assay, MDA-MB-468; format: cell-based; conditions: Homo sapiens, 72 h, mean ± SEM, read-out: Cytotoxicity IC50 MDA-MB-468
Method: as §1, §2

MCF-7 = assay: MTT cell viability assay, MCF-7; format: cell-based; conditions: Homo sapiens, MCF7, 72 h, mean ± SEM, read-out: Cytotoxicity IC50 MCF-7
Method: as §1, §2

MCF-10A = assay: MTT cell viability assay, MCF-10A normal breast epithelial cells; format: cell-based, human; conditions: Homo sapiens, 72 h; 3.0 μM; MCF-10A; mean ± SEM; read-out: Cell Survival Rate
Method: as §1, §2

| SMILES | inhibition at 0.1 µM (NAMPT) [%] | inhibition at 0.5 µM (PARP1) [%] | melting point [°C] | IC50 (NAMPT) [µM] | IC50 (PARP1) [µM] | fold decrease in inhibitory capacity against PARP1 compared to Olaparib (PARP1; ratio of IC50 values) [fold] | NAMPT Inhibition Rate (NAMPT) [%] | IC50 (MDA-MB-231) [µM] | IC50 (MDA-MB-468) [µM] | IC50 (MCF-7) [µM] | viability at 3 µM (MCF-10A) [%] |
| --- | --- | --- | --- | --- | --- | --- | --- | --- | --- | --- | --- |
| NC(=O)c1ccccc1OCc1ccc(F)c(C(=O)N2CCN(S(=O)(=O)Cc3ccc(NC(=O)NCc4cccnc4)cc3)CC2)c1 [DDY06, 2-((4-Fluoro-3-(4-((4-(3-(pyridin-3-ylmethyl)ureido)benzyl)sulfonyl)piperazine-1-carbonyl)benzyl)oxy)benzamide] | 48 | 89 |  |  |  |  |  | 15.4 ± 2.15 | 17.2 ± 1.57 | 7.95 ± 0.34 | 69.5 ± 2.56 |
| NC(=O)c1cccc2[nH]c(C(=O)N3CCN(S(=O)(=O)c4ccc(NC(=O)NCc5cccnc5)cc4)CC3)nc12 [DDY11, 2-(4-((4-(3-(Pyridin-3-ylmethyl)ureido)phenyl)sulfonyl)piperazine-1-carbonyl)-1H-benzo[d]imidazole-4-carboxamide] |  |  | > 250 | 0.034 ± 0.009 | 0.014 ± 0.003 |  |  | 13.8 ± 0.33 | 12.2 ± 1.39 | 7.39 ± 0.34 | 82.15 ± 0.21 |
| O=C(NCc1cccnc1)Nc1ccc(S(=O)(=O)N2CCN(C(=O)CCc3nc4ccccc4c(=O)[nH]3)CC2)cc1 [DDY03, 1-(4-((4-(3-(4-Oxo-3,4-dihydroquinazolin-2-yl)propanoyl)piperazin-1-yl)sulfonyl)phenyl)-3-(pyridin-3-ylmethyl)urea] |  |  | 120 to 121 | 0.055 ± 0.019 | 0.025 ± 0.007 |  |  | 10.9 ± 0.68 | 8.17 ± 0.31 | 11.2 ± 0.79 | 80.7 ± 1.5 |
| NC(=O)c1cc(F)ccc1OCc1ccc(F)c(C(=O)N2CCN(S(=O)(=O)c3ccc(NC(=O)NCc4cccnc4)cc3)CC2)c1 [DDY07, 5-Fluoro-2-((4-fluoro-3-(4-((4-(3-(pyridin-3-ylmethyl)ureido)phenyl)sulfonyl)piperazine-1-carbonyl)benzyl)oxy)benzamide] | 84 | 92 | 122 to 123 |  |  |  |  | 8.1 ± 0.71 | 7.43 ± 0.23 | 13.5 ± 0.16 | 70.73 ± 0.07 |
| O=C(c1cc(Cc2n[nH]c(=O)c3ccccc23)ccc1F)N1CCN(S(=O)(=O)c2ccc(NC(=S)NCc3cccnc3)cc2)CC1 [DDY01, 1-(4-((4-(2-Fluoro-5-((4-oxo-3,4-dihydrophthalazin-1-yl)methyl)benzoyl)piperazin-1-yl)sulfonyl)phenyl)-3-(pyridin-3-ylmethyl)thiourea] | 83 |  | 189 to 190 |  | 0.009 ± 0.002 | 4.5 |  | 6.17 ± 0.27 | 5.09 ± 0.09 | 8.48 ± 0.18 | 67.1 ± 1.73 |

Further lines, with some results ahead:

| inhibition at 0.1 µM (NAMPT) [%] | inhibition at 0.5 µM (PARP1) [%] | melting point [°C] | IC50 (NAMPT) [µM] | IC50 (PARP1) [µM] | fold decrease in inhibitory capacity against PARP1 compared to Olaparib (PARP1; ratio of IC50 values) [fold] | NAMPT Inhibition Rate (NAMPT) [%] | SMILES | IC50 (MDA-MB-231) [µM] | IC50 (MDA-MB-468) [µM] | IC50 (MCF-7) [µM] | viability at 3 µM (MCF-10A) [%] |
| --- | --- | --- | --- | --- | --- | --- | --- | --- | --- | --- | --- |
| 80 | 69 | 202 to 203 |  |  |  |  | NC(=O)c1ccccc1OCc1cccc(C(=O)N2CCN(S(=O)(=O)c3ccc(NC(=O)NCc4cccnc4)cc3)CC2)c1 [DDY08, 2-((3-(4-((4-(3-(Pyridin-3-ylmethyl)ureido)phenyl)sulfonyl)piperazine-1-carbonyl)benzyl)oxy)benzamide] | 11.1 ± 0.19 | 12.9 ± 1.69 | 9.18 ± 0.44 | 72.6 ± 3.46 |
| 84 to 86 | 70 | 125 to 126 |  |  |  | 84 | NC(=O)c1ccccc1OCc1ccc(F)c(C(=O)N2CCN(S(=O)(=O)c3ccc(NC(=S)NCc4cccnc4)cc3)CC2)c1 [DDY04, 2-((4-Fluoro-3-(4-((4-(3-(pyridin-3-ylmethyl)thioureido)phenyl)sulfonyl)piperazine-1-carbonyl)benzyl)oxy)benzamide] | 13.5 ± 0.66 | 14.1 ± 0.3 | 13.4 ± 2.41 | 98.4 ± 1.74 |
| 84 to 86 |  | 119 to 120 |  |  |  | 86 | NC(=O)c1ccccc1OCc1ccc(F)c(C(=O)N2CCN(S(=O)(=O)c3ccc(NC(=O)NCc4cccnc4)cc3)CC2)c1 [DDY05, 2-((4-Fluoro-3-(4-((4-(3-(pyridin-3-ylmethyl)ureido)phenyl)sulfonyl)piperazine-1-carbonyl)benzyl)oxy)benzamide] | 10.2 ± 0.29 | 8.02 ± 0.74 | > 20 | 88.7 ± 2.41 |
